# According to patent US20160067232A1, “METHODS FOR TREATING A STROKE-RELATED SENSORIMOTOR IMPAIRMENT USING AMINOPYRIDINES” (Acorda Therapeutics, Inc., priority 2011, published 2016):
# Values joined by “and” are separate entries in the source; they are usually repeats but may differ in a detail not shown here. Identical values can stand only once.
# Tests used:
# [1] = test system: rats with middle cerebral artery occlusion (MCAO); assay: Forelimb placing test, MCAO rats, double crossover study (Example 2); format: in vivo, Sprague Dawley rat
# Description: (§1) 4-AP was evaluated for its ability to promote functional sensorimotor improvement following ischemic stroke in rats with stable motor deficits at times remote from their ischemic events. The animal model mimics the conditions in human ischemic stroke and is produced by middle cerebral artery occlusion (MCAO), which results in extensive infarction in cerebral cortex and striatum, including the cortical spinal tract (white matter).
# (§2) In particular, the MCAO model in Sprague Dawley rats that was utilized in the experiments presented below mimics the conditions in human ischemic stroke. In this model, focal cerebral infarcts were made by permanent occlusion of the proximal right middle cerebral artery (MCA) using a modification of the method of Tamura et al. (No To Shinkei 1986; 38:747-51). Briefly, the temporalis muscle was bisected and reflected through an incision made midway between the eye and the ear canal. The proximal MCA was exposed through a subtemporal craniectomy without removing the zygomatic arch and without transecting the facial nerve.
# (§3) Dosing and Treatment: Rats were treated in accordance with the dosing schedule shown in Tables 2A, 2B, 3 and FIG. 2, with each Phase being a two week period of time. A solution of 4-AP was used in this experiment. Dosing was started at 4 weeks after ischemic event. 4-aminopyridine was dissolved in water for injection (WFI, Cellgro) and sterile filtered. Final concentrations of 0.315 mg/mL or 1.0 mg/mL of 4-aminopyridine were delivered at 2 mL/kg by gastric gavage, resulting in final doses of 0.63 mg/kg and 2 mg/kg respectively. Vehicle control treatment was WFI delivered at 2 mL/kg by gastric gavage. This study was divided into three treatment phases (1-3) with each randomized cohort of animals receiving a different dose level during each of the treatment phases. Starting on day 30 after MCAO (Day 30, start of phase 1), the animals received gavage dosing of solutions (2 mL/kg) approximately 12 hours apart, for a total of five doses. The same schedule was repeated with different treatment on Day 44 and Day 58 for phase 2 and 3 of the study, respectively. Animals were not treated during the 10 days between phases (washout period).
# Treatment groups: Dosing was started 4 weeks after MCAO surgery. During these 4 weeks, weekly behavioral assessments, as defined below, were performed. Two dose levels of 4-AP plus vehicle control were assessed, with treatment starting at 4 weeks after ischemic event. […] Following the final behavioral assessment, drug was withdrawn for 10 or 11 days, behavior was re-assessed, and then animals were re-challenged with a cross-over treatment (Phase 2 of Table 2B) as described in Tables 2A, 2B and 3, followed by the same behavioral testing and dosing regimen. […]
# [2] = typical; also printed as 94 ng/mL^−1; cited from earlier work
# [3] = test system: rats with middle cerebral artery occlusion (MCAO); assay: Body swing test (% right swing), MCAO rats, double crossover study (Example 2); format: in vivo, Sprague Dawley rat; conditions: for Body Swing Test (% right Swing), individual animals: one value per rat
# Description: as §1, §2, §3
# Treatment groups: Dosing was started 4 weeks after MCAO surgery. During these 4 weeks, weekly behavioral assessments, as defined below, were performed. Two dose levels of 4-AP plus vehicle control were assessed, with treatment starting at 4 weeks after ischemic event. All dosing was via gastric gavage, volume not to exceed 2 mL/kg. Animals were given the first dose and behavioral assessments were performed starting 60 minutes after dosing. Animals then received the second dose that day at the appropriate time and b.i.d (preferably every 12 hours) thereafter for 2 more days (3 total days of dosing, 5 total doses). One hour after the 5th dose, animals were subjected to behavioral assessments as defined below. Following the final behavioral assessment, drug was withdrawn for 10 or 11 days, behavior was re-assessed, and then animals were re-challenged with a cross-over treatment (Phase 2 of Table 2B) as described in Tables 2A, 2B and 3, followed by the same behavioral testing and dosing regimen. This cross-over was repeated one more time as well (Phase 3 of Table 2B) (see FIG. 2).
# Behavioral test details: Behavioral evaluations were done by evaluators blinded to treatment assignment. Blinded assessments of sensorimotor function were performed just prior to MCAO surgery, 24 hours after MCAO surgery and weekly thereafter until the first phase of dosing using limb placing and body swing behavioral tests. As described above, behavioral assessments were timed exactly with dosing times. Animals were tested one hour after the 1st and 5th doses of each phase (i.e., Days 30 and 32 of the first phase, Days 44 and 46 of the second phase; and Days 58 and 60 of the third phase); animals were also tested during the washout periods on Days 42 and 56. […]
# [4] = 0.63 mg/kg b.i.d. p.o., level 0.05
smiles,measurement,setting,value
Nc1ccncc1 [4-aminopyridine],"Forelimb function, low dose compared to vehicle, first mixed model",[1]; [4],didn't show statistical significant improvement
same,"Forelimb function, low dose compared to vehicle, second mixed model","[1]; 0.63 mg/kg b.i.d. p.o., p<0.0001",significant difference
same,"Forelimb function, high dose compared to low dose and vehicle","[1]; 2 mg/kg b.i.d. p.o., first mixed model, p=0.0334 vs low, p=0.001 vs vehicle",significantly improved the forelimb function
same,Effect on forelimb function (FIG. 3),"[1]; low or high dose, 4 weeks post ischemic brain injury, dose-responsive, reversible",effective to improve forelimb function
same,4-AP plasma concentrations obtained in clinical studies,[2],< 1 µM
same,"Body swing function, low dose compared to vehicle, second mixed model",[3]; [4],didn't show the statistical significant improvement
same,"Body swing function, low dose compared to vehicle, first mixed model","[3]; 0.63 mg/kg b.i.d. p.o., p=0.033",significantly improved the body swing function
same,"Body swing function, high dose compared to vehicle","[3]; 2 mg/kg b.i.d. p.o., first mixed model p=0.0131, second p<0.0001",significantly improved the body swing function
same,"Body Swing Test (% right Swing), individual animals","[3]; Group 1 (sequence hlv), D30 after MCAO, phase 1, high dose",33.33% and 40.00% (2×) and 30.00%
same,"Body Swing Test (% right Swing), individual animals","[3]; Group 1 (sequence hlv), D32 after MCAO, phase 1, high dose",50.00% (3×) and 40.00% (2×) and 30.00%
same,"Body Swing Test (% right Swing), individual animals","[3]; Group 1 (sequence hlv), D44 after MCAO, phase 2, low dose",33.33% and 50.00% and 40.00% (2×) and 30.00% (2×)
same,"Body Swing Test (% right Swing), individual animals","[3]; Group 1 (sequence hlv), D46 after MCAO, phase 2, low dose",33.33% and 30.00% and 20.00% (2×) and 40.00%
same,"Body Swing Test (% right Swing), individual animals","[3]; Group 2 (sequence lvh), D30 after MCAO, phase 1, low dose",20.00% and 40.00% and 30.00% (2×)
same,"Body Swing Test (% right Swing), individual animals","[3]; Group 2 (sequence lvh), D32 after MCAO, phase 1, low dose",40.00% and 30.00% (2×)
same,"Body Swing Test (% right Swing), individual animals","[3]; Group 2 (sequence lvh), D58 after MCAO, phase 3, high dose",40.00% and 50.00% (2×)
same,"Body Swing Test (% right Swing), individual animals","[3]; Group 2 (sequence lvh), D60 after MCAO, phase 3, high dose",40.00% (5×) and 50.00% (4×)
same,"Body Swing Test (% right Swing), individual animals","[3]; Group 3 (sequence vhl), D44 after MCAO, phase 2, high dose",40.00% (3×) and 43.33% (2×) and 46.67% (2×) and 53.33% and 13.33% and 36.67% and 50.00% (2×) and 23.33% and 33.33%
same,"Body Swing Test (% right Swing), individual animals","[3]; Group 3 (sequence vhl), D46 after MCAO, phase 2, high dose",40.00% (3×) and 43.33% (4×) and 50.00% and 30.00% (2×) and 53.33% (3×) and 20.00% and 23.33%
same,"Body Swing Test (% right Swing), individual animals","[3]; Group 3 (sequence vhl), D58 after MCAO, phase 3, low dose",30.00% (3×) and 46.67% (3×) and 40.00% (2×) and 20.00% (3×) and 53.33% and 33.33%
same,"Body Swing Test (% right Swing), individual animals","[3]; Group 3 (sequence vhl), D60 after MCAO, phase 3, low dose",30.00% (2×) and 43.33% (2×) and 36.67% (4×) and 50.00% (2×) and 26.67% and 23.33%
same,"Body swing scores, Day 56 vs. Day 60","[3]; Group 3, third treatment phase, low dose 0.63 mg/kg",unchanged
same,"Effect on global body control, body swing test (FIG. 5)","[3]; low or high dose, reversible and dose-dependent",effective to improve global body control
